Patent US20240299266A1, “FRAGRANCE COMPOSITIONS WITH MOISTURIZING BENEFITS” (Firmenich SA, priority 2021, published 2024)
Entries after “also recorded” stand apart in the source; their conditions may differ.

Test: TEWL (trans-epidermal water loss) measurement on in-vitro skin model
Settings: 50 μL applied on hydrated artificial skin membrane on a Franz Cell, Vapometer, TEWL during 60 min, normalized to pre-treatment reference (100%)
From the text: The present inventors have investigated the moisturizing potential of perfume ingredients. To perform this assessment they used a model called a skin replicating surface, and measured the transepidermal water loss (TEWL) before and after the deposit of a sample of the perfume ingredient. This is measure of the moisturizing activity of the perfume ingredient.
The moisturizing activity of a fragrance component may be calculated as follows. • a step of controlled deposition of a fragrance component upon an skin replicating surface, • a step of measurement of a quantity of evaporated water from the skin replicating surface or of remaining water on the skin replicating surface after the deposition of the fragrance component at different measurement times, • a step of reduction of the water evaporation rate calculation depending on the measured evaporated or remaining water quantities measured, • a step of moisturizing activity calculation as a function of the water evaporation rate measured.
The skin replicating surface comprising (i) a hydrogel membrane layer comprising a water permeable substrate supporting a biopolymer, and (ii) a stratum corneum mimic layer.
The hydrogel membrane composition should include a knitted cotton piece topped by a hydrogel containing biopolymer (gelatin) able to form a hydrogel with water and glycerol.
The stratum corneum mimic layer can be a Vitro-Corneum substrate (product of IMS inc.)
Before measurements, the hydrogel membrane and the Vitro-Corneum substrate should be separately hydrated in a hydration chamber and then, assembled. The Vitro-Corneum substrate is made of proteins and lipids and mimics the thickness, the visco-elasticity, the chemical reactivity and the surface properties of human stratum corneum. The hydrogel allows to keep the Vitro-Corneum substrate hydrated.
Hydrogel is prepared by mixing gelatin, glycerol and water at a water bath in the following composition. Preferably around 50% of the hydrogel is glycerol and around 5% is gelatin completed to 100% with water. This is added to a supporting surface and allowed to set.
Both part of the artificial skin model needs to be hydrated before being assembled. Hydrogel membranes and the Vitro-Corneum substrate (2×2 cm) are placed into an hydration chamber containing the glycerol/water wetting solution. Hydrogel membranes are hydrated and Vitro-Corneum substrates are hydrated. When the hydration is complete, the Vitro-Corneum substrate is deposited on the hydrogel. The final skin model is now ready for experiments.
The TEWL (Trans-Epidermal Water Loss) measurements were performed with a Vapometer and Moisturemeter, product of Delfin Technologies (Finland).
Hydrated artificial skin membrane is placed on the top of a Franz Cell, 50 μL of the product to be tested is applied on the membrane and spread manually with a finger protected by a glove. The Vapometer measures the water evaporation rate thanks to sensitive humidity sensors mounted in a cylindrical measurement chamber at the core of the device. During the measurement, the chamber is closed by the support and unaffected by ambient airflows. The water evaporation rate (g/m^2 h) is calculated from the increase of relative humidity in function of time. Ambient temperature and humidity are recorded using an external room sensor.
For our TEWL measurement method, each experiment lasts one hour, and several measurements were taken at different time points during this period.
All the experiments were compared to a reference system: hydrated artificial skin model, pre-treatment, without raw material application. […] For each experiment, the evaporation rate was measured before the ingredient application and the TEWL results were normalized by its value. With the normalization, the reference corresponds to 100% of water evaporation.

Compound	moisturizing (reduction of water evaporation rate / TEWL after deposit of the sample)	other results
1-oxa-12-cyclohexadecen-2-one (a)+1-oxa-13-cyclohexadecen-2-one	suitable moisturizing potential	
CC(=O)[C@]1(C)CC2=C(CCCC2(C)C)C[C@H]1C (racemic) [1-((2rs,3rs)-2,3,8,8-tetramethyl-1,2,3,4,5,6,7,8-octahydronaphthalen-2-yl)ethenone]	suitable moisturizing potential	
CO[C@@]1(C)CC[C@@]23C[C@@H]1C(C)(C)[C@@H]2CC[C@H]3C (racemic) [(+−)-8-methoxycedrane]	have moisturizing effects; also recorded: suitable moisturizing potential	
CC1/C=C/CCCCCCCCCCC(=O)C1 (racemic) [(+−)-(4e)-3-methyl-4-cyclopentadecen-1-one]	suitable moisturizing potential	
C=CCCC(=O)C1=CCCC(C)(C)C1 [1-(5,5-dimethyl-1-cyclohexen-1-yl)-4-penten-1-one]	suitable moisturizing potential	
C=C(C)C1CC=C(C)CC1 (stereo not shown) [1-methyl-4-(1-methylethenyl)-cyclohexene]	have moisturizing effects; also recorded: suitable moisturizing potential	
CCC(=O)OCC(=O)O[C@@H](C)[C@@H]1CCCC(C)(C)C1 [2-{(1S)-1-[(1R)-3,3-dimethylcyclohexyl]ethoxy}-2-oxoethyl propionate]	have moisturizing effects	
CC1(C)CCC[C@]2(C)[C@H]3CCO[C@]3(C)CC[C@@H]12 [(3ar,5as,9as,9br)-3a,6,6,9a-tetramethyldodecahydronaphtho[2,1-b]furan]	suitable moisturizing potential	
CCC(=O)OCC(C)(C)O[C@@H](C)[C@@H]1CCCC(C)(C)C1 [(+)-2-{(1S)-1-[(1R)-3,3-dimethylcyclohexyl]ethoxy}-2-methylpropyl propionate]	suitable moisturizing potential	
CCCCC[C@@H]1C(=O)CCCC[C@H]1CC(=O)OC [(+)-methyl (1s)-trans-3-oxo-2-pentyl-1-cycloheptaneacetate]	suitable moisturizing potential	moisturizing (reduction of water evaporation rate / TEWL after deposit of the sample) (listed as Cycloheptaneacetic acid, 3-oxo-2-pentyl-): have moisturizing effects
CC(=O)OCc1ccccc1 [benzyl acetate]	suitable moisturizing potential	moisturizing (reduction of water evaporation rate / TEWL after deposit of the sample) (listed as Benzyl acetate): have moisturizing effects
O=C1CCCCCCCCCCCCCCO1 [oxacyclohexadecan-2-one]	suitable moisturizing potential	moisturizing (reduction of water evaporation rate / TEWL after deposit of the sample) (listed as Oxacyclohexadecan-2-one): have moisturizing effects
(3RS,3aRS,6SR,7aSR)-3,6-dimethylhexahydro-1-benzofuran-2(3H)-one (A)+(3RS,3aSR,6RS,7aRS)-3,6-dimethylhexahydro-1-benzofuran-2(3H)-one (B)	have moisturizing effects; also recorded: suitable moisturizing potential	
